The nature of series [1]: Half life in human serum measured upto 30 min by HPLC analysis. The class given is ADME, cell-free.
Series [2] can be described thus: Half life in human liver microsomes measured upto 30 min in presence of NADPH by HPLC analysis. The class given is ADME, Microsome.
Series [3] can be described thus: Solubility of the compound in FaSSIF using crystalline sample. The class given is physicochemical.
Series [4] in a line: Acid dissociation constant, pKa of the compound. The class given is physicochemical.
Series [5] in a line: Lipophilicity, logD of compound at pH 7.4. The class given is physicochemical. The following applies: buffer.
Series [6] can be described thus: Solubility of the compound in FeSSIF using crystalline sample. The class given is physicochemical.
Series [7] in a line: Solubility of compound in water in presence of 0.5 M PBS at pH 7.0 using crystalline sample. The class given is physicochemical. The following applies: water with 0.5 M PBS.
Series [8] is described as follows: Solubility of compound in water at pH 7.2 using crystalline sample. The class given is physicochemical.
A short description of series [9]: Oral bioavailability in monkey at 20 mg/kg by LC/MS/MS analysis. In kind it is ADME, organism-based, Macaca mulatta. The following applies: rhesus monkey, in vivo.
Series [10] can be described thus: Oral bioavailability in rat at 30 mg/kg by LC/MS/MS analysis. In kind it is ADME, organism-based. The following applies: in vivo.
A short description of series [11]: Half life in monkey liver microsomes measured upto 30 min in presence of NADPH by HPLC analysis. In kind it is ADME, Macaca mulatta, Microsome. The following applies: rhesus monkey.
Series [12] in a line: Half life in dog liver microsomes measured upto 30 min in presence of NADPH by HPLC analysis. The class given is ADME, Canis lupus familiaris, Microsome.
A short description of series [13]: Oral bioavailability in dog at 10 mg/kg by LC/MS/MS analysis. In kind it is ADME, organism-based, Canis lupus familiaris. The following applies: in vivo.
A short description of series [14]: Half life in rat liver microsomes measured upto 30 min in presence of NADPH by HPLC analysis. The class given is ADME, Microsome.
Series [15] is described as follows: Oral bioavailability in dog. In kind it is ADME, organism-based, Canis lupus familiaris. The following applies: in vivo.
Series [16] can be described thus: Oral bioavailability in monkey. In kind it is ADME, organism-based, Macaca mulatta. The following applies: rhesus monkey, in vivo.
The nature of series [17]: Oral bioavailability in rat. The following applies: in vivo. In kind it is ADME, organism-based.

On to `O=C(OCOC(=O)c1c(F)ccc2c1OB(O)[C@@H]1C[C@H]21)OC1CCOCC1`, for which the half-life in series [1] and in series [2] was > 30 min throughout.
Turning to `COCCOC(=O)OCOC(=O)c1c(F)ccc2c1OB(O)[C@@H]1C[C@H]21`, the half-life in series [1] is > 60 min; in [2] it was > 30 min.
For `Cc1oc(=O)oc1COC(=O)c1c(F)ccc2c1OB(O)[C@@H]1C[C@H]21` the same measures were 3.7 min and > 30 min.
In the case of `CC(C)C(=O)OCOC(=O)c1c(F)ccc2c1O[B-](O)(O)[C@@H]1C[C@H]21.[Na+]`, the solubility (thermodynamic) in [3] was > 100 mg/mL; in series [6], > 100 mg/mL; in series [7] it was 10.6 mg/mL. The pKa in [4] was 4.8. The compound further had a logD in series [5] of 0.33. Moreover, the solubility in series [8] is > 100 mg/mL.
With `O=C(OCOC(=O)c1c(F)ccc2c1OB(O)[C@@H]1C[C@H]21)OC1CCCCC1`, the results for the half-life in [1] and in series [2] were > 60 min and 27 min, respectively.
On to `CCOC(=O)OCOC(=O)c1c(F)ccc2c1OB(O)[C@@H]1C[C@H]21`, for which the half-life in [1] was > 60 min; in series [2], > 30 min.
The corresponding values for `CC(=O)N1CCC[C@@H]1C(=O)OCOC(=O)c1c(F)ccc2c1OB(O)[C@@H]1C[C@H]21` are > 30 min and > 30 min.
On to `O=C(OCOC(=O)c1c(F)ccc2c1OB(O)[C@@H]1C[C@H]21)OC1COC1`, for which the half-life was 11 min in [1] and > 30 min in series [2].
In the case of `CC(=O)OCCOC(=O)OCOC(=O)c1c(F)ccc2c1OB(O)[C@@H]1C[C@H]21`, the half-life was > 30 min in [1] and 24 min in [2].
For `O=C(OCOC(=O)C1CCOCC1)c1c(F)ccc2c1OB(O)[C@@H]1C[C@H]21` the same measures were 26 min and 23 min.
In series [1], `O=C(OCOC(=O)C1COC1)c1c(F)ccc2c1OB(O)[C@@H]1C[C@H]21` gave a half-life of 3.9 min.
Turning to `O=C(OCOC(=O)C1CC1)c1c(F)ccc2c1OB(O)[C@@H]1C[C@H]21`, the half-life in [1] was > 60 min; in series [2], 14.3 min.
With `CC(C)OC(=O)OCOC(=O)c1c(F)ccc2c1OB(O)[C@@H]1C[C@H]21`, the half-life in series [2] is > 30 min.
Take `CC(=O)OCOC(=O)c1c(F)ccc2c1OB(O)[C@@H]1C[C@H]21`: the results for the bioavailability in [9], in [10] and in series [13] were 103%, 131% and 50.1%, respectively. The half-life in series [11] was 3 min; in series [1], > 30 min; in series [12] it was 15 min; in series [2] it was 8 min; in [14], 3 min.
For `CCCC(=O)OCOC(=O)c1c(F)ccc2c1OB(O)[C@@H]1C[C@H]21`, the figures for the bioavailability in series [9], in [10] and in series [13] were 104%, 145% and 55.6%, respectively. The half-life is 2 min in [11]; > 60 min in series [1]; 11 min in series [12]; 28 min in series [2]; 3 min in series [14].
Turning to `CC(C)C(=O)OCOC(=O)c1c(F)ccc2c1OB(O)[C@@H]1C[C@H]21`, the bioavailability came to 106% in [9], 125% in series [10] and 65% in [13]. The half-life is 2 min in [11]; > 60 min in series [1]; 23 min in [12]; 9 min in series [2]; 5 min in [14].
Consider `CN(C)C(=O)COC(=O)c1c(F)ccc2c1OB(O)[C@@H]1C[C@H]21`, for which the half-life is > 60 min in series [1] and > 30 min in [2].
With `CN(C)C(=O)COC(=O)OCOC(=O)c1c(F)ccc2c1OB(O)[C@@H]1C[C@H]21`, the half-life in series [1] was > 60 min; in series [2] it was > 30 min.
`O=C(O)c1c(F)ccc2c1OB(O)[C@@H]1C[C@H]21` [XERUBORBACTAM]: the results for the bioavailability in series [15], in [16] and in series [17] were 50%, 20% and 50%, respectively.

These data come from ChEMBL document CHEMBL5150011, “Selection of QPX7831, an Orally Bioavailable Prodrug of Boronic Acid β-Lactamase Inhibitor QPX7728” (J Med Chem, 2021).
